# Reference: paper PMC6321601 (Molecules, 2018)
# Legend:
# [1] = system: L-O2 human normal liver cells; assay: MTT assay, toxicity against L-O2 normal cells; type: cell-based; conditions: 72 h incubation, mean of three independent experiments
# Procedure: (§1) HepG-2 human hepatocellular carcinoma cells and L-O2 human normal liver cells were maintained in DMEM culture medium supplemented with 10% FBS at 37 °C under a humidified atmosphere with 5% CO2.
# (§2) HepG-2 and L-O2 cells in logarithmic growth phase were seeded into a 96-well plate at 5 × 10^3/well/200 µL. After 12 h, compounds at different concentrations were added and incubated for 72 h at 37 °C, 5% CO2. Then, 20 µL MTT (5 mg/mL) was added into each well and incubated for 4 h. The supernatant was discarded, and the precipitate was dissolved with DMSO. The absorbance of the optical density (OD) at 570 nm was detected using a microplate reader and the IC50 was calculated with GraphPad Prism 5.
# [2] = system: HepG-2 human hepatocellular carcinoma cells; assay: MTT assay, proliferation of HepG-2 cells; type: cell-based; conditions: mean of three independent experiments
# Procedure: as §1, §2
# [3] = Homo sapiens, HepG2, 72 h incubation
compound,measurement,setting,value
"CC(=O)OC(C)(C)/C=C/C(=O)[C@](C)(O)C1[C@H](OC(=O)CCC(=O)OCCCCCCCCCCOc2no[n+]([O-])c2S(=O)(=O)c2ccccc2)C[C@@]2(C)C3CC=C4C(CC(O)C(=O)C4(C)C)[C@]3(C)C(=O)C[C@]12C (stereo partly drawn) [Compound 10i, 4-((10-((4-(((9R,13R,14S,16R)-17-((R,E)-6-Acetoxy-2-hydroxy-6-methyl-3-oxohept-4-en-2-yl)-2-hydroxy-4,4,9,13,14-pentamethyl-3,11-dioxo-2,3,4,7,8,9,10,11,12,13,14,15,16,17-tetradecahydro-1H-cyclopenta[a]phenanthren-16-yl)oxy)-4-oxobutanoyl)oxy)decyl)oxy)-3-(phenylsulfonyl)-1,2,5-oxadiazole 2-oxide]",IC50,[1]; Homo sapiens,3270 ± 430 nM
same,IC50,[2]; [3],6920 ± 750 nM
"CC(=O)OC(C)(C)/C=C/C(=O)[C@](C)(O)C1[C@H](OC(=O)CCC(=O)OCCCCCCCCCCCOc2no[n+]([O-])c2S(=O)(=O)c2ccccc2)C[C@@]2(C)C3CC=C4C(CC(O)C(=O)C4(C)C)[C@]3(C)C(=O)C[C@]12C (stereo partly drawn) [Compound 10j, 4-((11-((4-(((9R,13R,14S,16R)-17-((R,E)-6-Acetoxy-2-hydroxy-6-methyl-3-oxohept-4-en-2-yl)-2-hydroxy-4,4,9,13,14-pentamethyl-3,11-dioxo-2,3,4,7,8,9,10,11,12,13,14,15,16,17-tetradecahydro-1H-cyclopenta[a]phenanthren-16-yl)oxy)-4-oxobutanoyl)oxy)undecyl)oxy)-3-(phenylsulfonyl)-1,2,5-oxadiazole 2-oxide]",IC50,[1]; Homo sapiens,6690 ± 3950 nM
same,IC50,[2]; [3],10300 ± 1110 nM
"CC(=O)OC(C)(C)/C=C/C(=O)[C@](C)(O)C1[C@H](OC(=O)CCC(=O)OCCCCCCCCCCCCOc2no[n+]([O-])c2S(=O)(=O)c2ccccc2)C[C@@]2(C)C3CC=C4C(CC(O)C(=O)C4(C)C)[C@]3(C)C(=O)C[C@]12C (stereo partly drawn) [Compound 10k, 4-((12-((4-(((9R,13R,14S,16R)-17-((R,E)-6-Acetoxy-2-hydroxy-6-methyl-3-oxohept-4-en-2-yl)-2-hydroxy-4,4,9,13,14-pentamethyl-3,11-dioxo-2,3,4,7,8,9,10,11,12,13,14,15,16,17-tetradecahydro-1H-cyclopenta[a]phenanthren-16-yl)oxy)-4-oxobutanoyl)oxy)dodecyl)oxy)-3-(phenylsulfonyl)-1,2,5-oxadiazole 2-oxide]",IC50,[1]; Homo sapiens,> 20000 nM
same,IC50,[2]; [3],> 20000 nM
"CC(=O)OC(C)(C)/C=C/C(=O)[C@](C)(O)C1[C@H](OC(=O)CCC(=O)OC/C=C/COc2no[n+]([O-])c2S(=O)(=O)c2ccccc2)C[C@@]2(C)C3CC=C4C(CC(O)C(=O)C4(C)C)[C@]3(C)C(=O)C[C@]12C (stereo partly drawn) [Compound 10l, 4-(((E)-4-((4-(((9R,13R,14S,16R)-17-((R,E)-6-Acetoxy-2-hydroxy-6-methyl-3-oxohept-4-en-2-yl)-2-hydroxy-4,4,9,13,14-pentamethyl-3,11-dioxo-2,3,4,7,8,9,10,11,12,13,14,15,16,17-tetradecahydro-1H-cyclopenta[a]phenanthren-16-yl)oxy)-4-oxobutanoyl)oxy)but-2-en-1-yl)oxy)-3-(phenylsulfonyl)-1,2,5-oxadiazole 2-oxide]",IC50,[1]; Homo sapiens,2720 ± 380 nM
same,IC50,[2]; [3],1010 ± 400 nM
"CC(=O)OC(C)(C)/C=C/C(=O)[C@](C)(O)C1[C@H](OC(=O)CCC(=O)OCC#CCOc2no[n+]([O-])c2S(=O)(=O)c2ccccc2)C[C@@]2(C)C3CC=C4C(CC(O)C(=O)C4(C)C)[C@]3(C)C(=O)C[C@]12C (stereo partly drawn) [Compound 10m, 4-((4-((4-(((9R,13R,14S,16R)-17-((R,E)-6-Acetoxy-2-hydroxy-6-methyl-3-oxohept-4-en-2-yl)-2-hydroxy-4,4,9,13,14-pentamethyl-3,11-dioxo-2,3,4,7,8,9,10,11,12,13,14,15,16,17-tetradecahydro-1H-cyclopenta[a]phenanthren-16-yl)oxy)-4-oxobutanoyl)oxy)but-2-yn-1-yl)oxy)-3-(phenylsulfonyl)-1,2,5-oxadiazole 2-oxide]",IC50,[1]; Homo sapiens,2940 ± 90 nM
same,IC50,[2]; [3],1350 ± 100 nM
"CC(=O)OC(C)(C)/C=C/C(=O)[C@](C)(O)C1[C@H](OC(=O)CCC(=O)OCC(C)(C)COc2no[n+]([O-])c2S(=O)(=O)c2ccccc2)C[C@@]2(C)C3CC=C4C(CC(O)C(=O)C4(C)C)[C@]3(C)C(=O)C[C@]12C (stereo partly drawn) [Compound 10n, 4-(3-((4-(((9R,13R,14S,16R)-17-((R,E)-6-Acetoxy-2-hydroxy-6-methyl-3-oxohept-4-en-2-yl)-2-hydroxy-4,4,9,13,14-pentamethyl-3,11-dioxo-2,3,4,7,8,9,10,11,12,13,14,15,16,17-tetradecahydro-1H-cyclopenta[a]phenanthren-16-yl)oxy)-4-oxobutanoyl)oxy)-2,2-dimethylpropoxy)-3-(phenylsulfonyl)-1,2,5-oxadiazole 2-oxide]",IC50,[1]; Homo sapiens,3310 ± 180 nM
same,IC50,[2]; [3],1110 ± 220 nM
"CC(=O)OC(C)(C)/C=C/C(=O)[C@](C)(O)C1[C@H](OC(=O)CCC(=O)OCc2ccc(COc3no[n+]([O-])c3S(=O)(=O)c3ccccc3)cc2)C[C@@]2(C)C3CC=C4C(CC(O)C(=O)C4(C)C)[C@]3(C)C(=O)C[C@]12C (stereo partly drawn) [Compound 10o, 4-((4-(((4-(((9R,13R,14S,16R)-17-((R,E)-6-Acetoxy-2-hydroxy-6-methyl-3-oxohept-4-en-2-yl)-2-hydroxy-4,4,9,13,14-pentamethyl-3,11-dioxo-2,3,4,7,8,9,10,11,12,13,14,15,16,17-tetradecahydro-1H-cyclopenta[a]phenanthren-16-yl)oxy)-4-oxobutanoyl)oxy)methyl)benzyl)oxy)-3-(phenylsulfonyl)-1,2,5-oxadiazole 2-oxide]",IC50,[1]; Homo sapiens,3000 ± 260 nM
same,IC50,[2]; [3],1020 ± 280 nM
"CC(=O)OC(C)(C)/C=C/C(=O)[C@](C)(O)C1[C@H](OC(=O)CCC(=O)O)C[C@@]2(C)C3CC=C4C(C[C@H](O)C(=O)C4(C)C)[C@]3(C)C(=O)C[C@]12C (stereo partly drawn) [Compound 11, 4-(((2S,9R,13R,14S,16R)-17-((R,E)-6-Acetoxy-2-hydroxy-6-methyl-3-oxohept-4-en-2-yl)-2-hydroxy-4,4,9,13,14-pentamethyl-3,11-dioxo-2,3,4,7,8,9,10,11,12,13,14,15,16,17-tetradecahydro-1H-cyclopenta[a]phenanthren-16-yl)oxy)-4-oxobutanoic acid]",IC50,[1]; Homo sapiens,> 20000 nM
same,IC50,[2]; [3],> 20000 nM
"cucurbitacin B [Compound 1, reference compound]",IC50,[1],19 ± 3 nM
same,IC50,[2]; 72 h incubation,60 ± 20 nM
